Measurements taken from the supplement of paper PMC8253809.

Experiments:
HGGX39 [1] = paediatric high-grade glioma line; assay: EC50 (inflection of fitted growth-inhibition curve) (log10 M)
Outline: (§1)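 A pin tool was used to add a 10-point threefold dilution series (mean top concentration 35 μM), in triplicate, to patient-derived pHGG/DIPG cell lines and astrocyte controls seeded on 384-well plates coated with 1% Geltrex. After 7 days at 37 °C and 5% CO2 (3 days for iAstro), CellTiter-Glo luminescence was log2-transformed, normalised on each plate to % activity relative to negative (solvent) and positive control wells, and pooled. EC50 and maximal response (yFin) were read from the three- or four-parameter log-logistic fit with the lowest AICc.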

HGGX6 [2] = H3.3 G34R paediatric high-grade glioma line; assay: as above
Outline: as §1

HGGX39 [3] = assay: maximal growth inhibition (yFin) relative to DMSO / staurosporine; higher = more efficacious
Outline: as §1

HGGX6 [4] = assay: as above
Outline: as §1

DIPGX29 = H3.3 K27M diffuse intrinsic pontine glioma line; assay: area under dose-response curve of % growth inhibition (log2 RLU vs DMSO / staurosporine), 1e-11 to 1e-4 M (% x log10 M); higher = more growth inhibition
Outline: (§2)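 A 10-point threefold dilution series, mean top concentration 35 μM, was applied in triplicate to patient-derived pHGG/DIPG lines and astrocytes on 1% Geltrex-coated 384-well plates for 7 days (3 days for iAstro) at 37 °C, 5% CO2. Per-plate % activity between solvent and positive controls was calculated from log2-transformed CellTiter-Glo luminescence. Area under the curve followed from the trapezoid rule on a log-logistic fit, or on a smoothing spline when the sigmoid fit failed.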

DIPGX37 [5] = H3.3 K27M diffuse intrinsic pontine glioma line; assay: as above
Outline: as §2

HGGX39 [6] = assay: as above
Outline: as §2

HGGX6 [7] = assay: as above
Outline: as §2

DIPGX37 [8] = assay: EC50 (inflection of fitted growth-inhibition curve) (log10 M)
Outline: as §1

DIPGX37 [9] = assay: maximal growth inhibition (yFin) relative to DMSO / staurosporine; higher = more efficacious
Outline: as §1

## Cc1ccc(C(=O)Nc2ccc(Oc3cc4cnn(C)c4cc3-c3cn[nH]c3)c(F)c2)c(=O)n1-c1ccc(F)cc1
HGGX39 [1]
  EC50 (log10 M): -5.27
HGGX6 [2]
  EC50 (log10 M): -5.1
HGGX39 [3]
  maximal growth inhibition: 20.9%
HGGX6 [4]
  maximal growth inhibition: 25.3%
DIPGX29
  area under dose-response curve: 22.4
DIPGX37 [5]
  area under dose-response curve: 16.1
HGGX39 [6]
  area under dose-response curve: 28.1
HGGX6 [7]
  area under dose-response curve: 41.1

## Nc1nccc(-c2c(-c3ccc(F)cc3)ncn2C2CCCCC2)n1
HGGX6 [2]
  EC50 (log10 M): -4.94
HGGX6 [4]
  maximal growth inhibition: 21%
DIPGX29
  area under dose-response curve: 16.4
DIPGX37 [5]
  area under dose-response curve: 21.5
HGGX39 [6]
  area under dose-response curve: 21.3
HGGX6 [7]
  area under dose-response curve: 31.7

## CC(=O)OC12COC1CC(O)C1(C)C(=O)C(O)C3=C(C)C(O)CC(O)(C(OC(=O)c4ccccc4)C21)C3(C)C (stereo not drawn) [10-DEACETYLBACCATIN-III]
DIPGX37 [8]
  EC50 (log10 M): -4.92
HGGX39 [1]
  EC50 (log10 M): -5.19
DIPGX37 [9]
  maximal growth inhibition: 31.4%
HGGX39 [3]
  maximal growth inhibition: 39.6%
DIPGX29
  area under dose-response curve: 13.6
DIPGX37 [5]
  area under dose-response curve: 28.9
HGGX39 [6]
  area under dose-response curve: 47.3
HGGX6 [7]
  area under dose-response curve: 14.9

## Clc1cc2c(NC3CCCC3)nnc(-c3ccncc3)c2cc1Cl [A-196]
DIPGX37 [8]
  EC50 (log10 M): -4.53
DIPGX37 [9]
  maximal growth inhibition: 23.4%
DIPGX29
  area under dose-response curve: 2.12
DIPGX37 [5]
  area under dose-response curve: 18.8
HGGX39 [6]
  area under dose-response curve: 2.32
HGGX6 [7]
  area under dose-response curve: 3.18

## COc1cc(Nc2ncc3c(n2)-c2ccc(Cl)cc2C(c2c(F)cccc2OC)=NC3)ccc1C(=O)O [ALISERTIB]
HGGX39 [1]
  EC50 (log10 M): -4.99
HGGX6 [2]
  EC50 (log10 M): -5.31
HGGX39 [3]
  maximal growth inhibition: 39.1%
HGGX6 [4]
  maximal growth inhibition: 24.7%
DIPGX29
  area under dose-response curve: 52.1
DIPGX37 [5]
  area under dose-response curve: 66.4
HGGX39 [6]
  area under dose-response curve: 69.3
HGGX6 [7]
  area under dose-response curve: 49.8

## C[C@@H]1CC[C@H]2[C@@H](C)C(=O)O[C@@H]3O[C@@]4(C)CC[C@@H]1[C@]32OO4 [ARTEMISININ]
DIPGX37 [8]
  EC50 (log10 M): -5.3
HGGX39 [1]
  EC50 (log10 M): -5.38
DIPGX37 [9]
  maximal growth inhibition: 32.7%
HGGX39 [3]
  maximal growth inhibition: 29.7%
DIPGX29
  area under dose-response curve: 19.7
DIPGX37 [5]
  area under dose-response curve: 42.5
HGGX39 [6]
  area under dose-response curve: 36.8
HGGX6 [7]
  area under dose-response curve: 20.9

## Cc1c(N)nc([C@H](CC(N)=O)NC[C@H](N)C(N)=O)nc1C(=O)N[C@H](C(=O)N[C@H](C)[C@@H](O)[C@H](C)C(=O)N[C@H](C(=O)NCCc1nc(-c2nc(C(=O)NCCC[S+](C)C)cs2)cs1)[C@@H](C)O)[C@@H](OC1OC(CO)C(O)C(O)C1OC1OC(CO)C(O)C(OC(N)=O)C1O)c1cnc[nH]1 (stereo partly drawn) [BLEOMYCIN]
DIPGX37 [8]
  EC50 (log10 M): -5.22
DIPGX37 [9]
  maximal growth inhibition: 24.8%
DIPGX29
  area under dose-response curve: 22.6
DIPGX37 [5]
  area under dose-response curve: 40.4
HGGX39 [6]
  area under dose-response curve: 19.5
HGGX6 [7]
  area under dose-response curve: 6.9

## C/C=C(\C)C(=O)N[C@@H](c1ccccc1)[C@@H](O)C(=O)O[C@H]1C[C@@]2(O)[C@@H](OC(=O)c3ccccc3)[C@@H]3[C@]4(OC(C)=O)CO[C@@H]4C[C@H](O)[C@@]3(C)C(=O)[C@H](OC(C)=O)C(=C1C)C2(C)C [CEPHALOMANNINE]
DIPGX37 [8]
  EC50 (log10 M): -7.58
HGGX39 [1]
  EC50 (log10 M): -7.73
DIPGX37 [9]
  maximal growth inhibition: 28.2%
HGGX39 [3]
  maximal growth inhibition: 48.4%
DIPGX29
  area under dose-response curve: 46.7
DIPGX37 [5]
  area under dose-response curve: 101
HGGX39 [6]
  area under dose-response curve: 180
HGGX6 [7]
  area under dose-response curve: 54.1

## Cc1sc2c(c1C)C(c1ccc(Cl)cc1)=N[C@@H](CC(N)=O)c1nnc(C)n1-2 [CPI-203]
DIPGX37 [8]
  EC50 (log10 M): -6.88
DIPGX37 [9]
  maximal growth inhibition: 22.3%
DIPGX29
  area under dose-response curve: 26.8
DIPGX37 [5]
  area under dose-response curve: 62.1
HGGX39 [6]
  area under dose-response curve: 47.1
HGGX6 [7]
  area under dose-response curve: 35.8

## CCc1c2c(nc3ccc(OC(=O)N4CCC(N5CCCCC5)CC4)cc13)-c1cc3c(c(=O)n1C2)COC(=O)[C@]3(O)CC [IRINOTECAN]
DIPGX37 [8]
  EC50 (log10 M): -7.09
HGGX39 [1]
  EC50 (log10 M): -5.98
DIPGX37 [9]
  maximal growth inhibition: 20.5%
HGGX39 [3]
  maximal growth inhibition: 53.2%
DIPGX29
  area under dose-response curve: 52.4
DIPGX37 [5]
  area under dose-response curve: 56.4
HGGX39 [6]
  area under dose-response curve: 107
HGGX6 [7]
  area under dose-response curve: 25.9

## CCC(C)n1ncn(-c2ccc(N3CCN(c4ccc(OCC5COC(Cn6cncn6)(c6ccc(Cl)cc6Cl)O5)cc4)CC3)cc2)c1=O (stereo not drawn) [ITRACONAZOLE]
DIPGX37 [8]
  EC50 (log10 M): -4.91
DIPGX37 [9]
  maximal growth inhibition: 62.3%
DIPGX29
  area under dose-response curve: 20
DIPGX37 [5]
  area under dose-response curve: 56.7
HGGX39 [6]
  area under dose-response curve: 28.4
HGGX6 [7]
  area under dose-response curve: 29.7

## N[C@@H](Cc1cc(I)c(Oc2ccc(O)c(I)c2)c(I)c1)C(=O)O [LIOTHYRONINE]
DIPGX37 [8]
  EC50 (log10 M): -5.69
HGGX39 [1]
  EC50 (log10 M): -5.95
DIPGX37 [9]
  maximal growth inhibition: 26.5%
HGGX39 [3]
  maximal growth inhibition: 26.4%
DIPGX29
  area under dose-response curve: 31.4
DIPGX37 [5]
  area under dose-response curve: 62.2
HGGX39 [6]
  area under dose-response curve: 51.4
HGGX6 [7]
  area under dose-response curve: 11.9

## Cc1cc(=O)n(C)c2cc(N3C(=O)CC[C@H](NS(=O)(=O)CC(C)C)[C@H]3c3ccc(Cl)cc3)ccc12 [LP-99]
HGGX6 [2]
  EC50 (log10 M): -4.95
HGGX6 [4]
  maximal growth inhibition: 22.4%
DIPGX29
  area under dose-response curve: 12.9
DIPGX37 [5]
  area under dose-response curve: 10.2
HGGX39 [6]
  area under dose-response curve: 11.5
HGGX6 [7]
  area under dose-response curve: 21.2

## CC[C@H](C)C(=O)O[C@H]1CCC=C2C=C[C@H](C)[C@H](CC[C@@H]3C[C@@H](O)CC(=O)O3)[C@H]21 [MEVASTATIN]
DIPGX37 [8]
  EC50 (log10 M): -5.53
HGGX39 [1]
  EC50 (log10 M): -4.97
DIPGX37 [9]
  maximal growth inhibition: 20.8%
HGGX39 [3]
  maximal growth inhibition: 57.7%
DIPGX29
  area under dose-response curve: 32.6
DIPGX37 [5]
  area under dose-response curve: 41.4
HGGX39 [6]
  area under dose-response curve: 56.7
HGGX6 [7]
  area under dose-response curve: 23.3

## O=C1c2c(O)ccc(O)c2C(=O)c2c(NCCNCCO)ccc(NCCNCCO)c21 [MITOXANTHRONE]
DIPGX37 [8]
  EC50 (log10 M): -4.79
DIPGX37 [9]
  maximal growth inhibition: 81.9%
DIPGX29
  area under dose-response curve: 116
DIPGX37 [5]
  area under dose-response curve: 104
HGGX39 [6]
  area under dose-response curve: 116
HGGX6 [7]
  area under dose-response curve: 112

## COc1ccc(C2CC(c3ccccc3)=NN2c2ccc(S(N)(=O)=O)cc2)cc1 (stereo not drawn) [ML141]
HGGX39 [1]
  EC50 (log10 M): -4.54
HGGX39 [3]
  maximal growth inhibition: 38.3%
DIPGX29
  area under dose-response curve: 26.6
DIPGX37 [5]
  area under dose-response curve: 33.4
HGGX39 [6]
  area under dose-response curve: 20
HGGX6 [7]
  area under dose-response curve: 33.7

## Cc1sc2c(c1C)C(c1ccc(Cl)cc1)=N[C@@H](CC(=O)Nc1ccc(O)cc1)c1nnc(C)n1-2 [OTX015]
DIPGX37 [8]
  EC50 (log10 M): -6.7
HGGX39 [1]
  EC50 (log10 M): -5.11
DIPGX37 [9]
  maximal growth inhibition: 29.5%
HGGX39 [3]
  maximal growth inhibition: 50.6%
DIPGX29
  area under dose-response curve: 30.3
DIPGX37 [5]
  area under dose-response curve: 80
HGGX39 [6]
  area under dose-response curve: 53.1
HGGX6 [7]
  area under dose-response curve: 33.7

## CC(=O)O[C@H]1C(=O)[C@@]2(C)[C@H]([C@H](OC(=O)c3ccccc3)[C@]3(O)C[C@H](OC(=O)[C@H](O)[C@@H](NC(=O)c4ccccc4)c4ccccc4)C(C)=C1C3(C)C)[C@]1(OC(C)=O)CO[C@@H]1C[C@@H]2O [PACLITAXEL]
DIPGX37 [8]
  EC50 (log10 M): -8.09
HGGX39 [1]
  EC50 (log10 M): -8.21
DIPGX37 [9]
  maximal growth inhibition: 24.3%
HGGX39 [3]
  maximal growth inhibition: 42.5%
DIPGX29
  area under dose-response curve: 42.1
DIPGX37 [5]
  area under dose-response curve: 99.3
HGGX39 [6]
  area under dose-response curve: 179
HGGX6 [7]
  area under dose-response curve: 55.2
